We go through eleven compounds from PubChem BioAssay (NCI).

Values joined by “and” are separate entries in the source; they are usually repeats but may differ in a detail not shown here. Identical values can stand only once.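 Step 1: Grow cells in 96-well plates. Step 2: Expose to compound for 48 hours at 5 concentrations. Step 3: Interpolate endpoints linearly; if unreached, use highest concentration. GI50 is the concentration that inhibits growth by half. TGI is the concentration that stops growth completely.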

Some test systems named below: SW-620 colon; CCRF-CEM leukemia; UACC-257 melanoma; RPMI-8226 leukemia; K-562 leukemia; NCI-H226 lung; OVCAR-3 ovarian; HCT-15 colon.
What all share (test): NCI-60 cell line screen, 48 h

Consider `C=CC1CC12C(=O)C1OC2(C)C2C(=O)c3ccccc3C(=O)C12` (stereo not drawn), for which the GI50 was 45.3 µM in the assay on SW-620 colon; 39.2 µM in the assay with CCRF-CEM leukemia; > 45.9 µM with UACC-257 melanoma; 28.2 µM in the assay with RPMI-8226 leukemia; 2.3 µM in the assay with K-562 leukemia; > 76.2 µM with NCI-H226 lung. The GI50 was 13.9 µM with OVCAR-3 ovarian and 41.9 µM in the assay on HCT-15 colon. Further, the TGI in the assay with SW-620 colon was > 100 µM; with CCRF-CEM leukemia it was > 93.9 µM; with UACC-257 melanoma it was > 81.7 µM; in the assay with RPMI-8226 leukemia, 99.2 µM; in the assay with K-562 leukemia it was 6.94 µM; with NCI-H226 lung, > 100 µM. In addition, the TGI is 60.5 µM in the assay with OVCAR-3 ovarian and > 100 µM with HCT-15 colon.
`Cn1cc(-c2cc3c(Nc4ccc(CC(=O)Nc5cc(C(C)(C)C)on5)cc4)ncnc3[nH]2)cn1`: the GI50 in the assay with SW-620 colon is 0.871 µM and 0.654 µM; in the assay with CCRF-CEM leukemia, 0.395 µM and 0.302 µM; in the assay on UACC-257 melanoma, 2.04 µM; in the assay on RPMI-8226 leukemia, 2.03 µM and 1.07 µM; with K-562 leukemia, 1.21 µM and 0.596 µM; with NCI-H226 lung it was 0.899 µM and 0.54 µM. For the same compound, the GI50 was 0.496 µM and 0.36 µM in the assay on OVCAR-3 ovarian; 3.26 µM and 2.91 µM with HCT-15 colon. The TGI with SW-620 colon is 2.75 µM and 5.73 µM; in the assay on UACC-257 melanoma, 6.96 µM and 6.99 µM; with RPMI-8226 leukemia, 5.41 µM and 3.8 µM; in the assay on K-562 leukemia, > 100 µM and 11.2 µM; in the assay on NCI-H226 lung, 4.18 µM and 4.1 µM; in the assay on OVCAR-3 ovarian, 2.48 µM and 2.54 µM. For the same compound, the TGI with HCT-15 colon is 13.8 µM and 10.3 µM.
As to `O=C(c1ccccc1)c1ccc(-c2ccc(O)cc2)cc1`, the GI50 was 5.23 µM in the assay on SW-620 colon; 0.533 µM in the assay with CCRF-CEM leukemia; 16 µM in the assay on UACC-257 melanoma; 2.7 µM in the assay on RPMI-8226 leukemia; 2.92 µM in the assay with K-562 leukemia; 16.8 µM in the assay on NCI-H226 lung. The GI50 in the assay with OVCAR-3 ovarian is 7.59 µM; in the assay with HCT-15 colon, 5 µM. The TGI with SW-620 colon was > 100 µM; in the assay with CCRF-CEM leukemia it was > 23.9 µM; with UACC-257 melanoma, 66.5 µM; with RPMI-8226 leukemia it was 18.3 µM; with K-562 leukemia it was > 60.7 µM; with NCI-H226 lung, > 73.7 µM. In addition, the TGI with OVCAR-3 ovarian worked out at 31.6 µM; in the assay on HCT-15 colon, 27.7 µM.
In the case of `COC1=CC(c2ccc[nH]2)=N/C1=C\c1[nH]c(C)c(C(=O)CCC(=O)Oc2ccc3c(c2)CCC2C3CC[C@]3(C)C(=O)CC[C@@H]23)c1C` (stereo partly drawn), the GI50 in the assay on SW-620 colon is 0.773 µM; in the assay with CCRF-CEM leukemia, 0.527 µM; in the assay with UACC-257 melanoma, 97.6 µM; in the assay with RPMI-8226 leukemia, 5.85 µM; with K-562 leukemia, 4.22 µM; in the assay with NCI-H226 lung, 10.9 µM. In addition, the values for the GI50 in the assay on OVCAR-3 ovarian and in the assay with HCT-15 colon were 17.5 µM and 2.52 µM, respectively. Besides, the TGI is > 37.9 µM with SW-620 colon; > 100 µM in the assay on CCRF-CEM leukemia; > 100 µM in the assay with UACC-257 melanoma; > 100 µM in the assay on RPMI-8226 leukemia; > 100 µM with K-562 leukemia; > 58.6 µM in the assay on NCI-H226 lung. Besides, the TGI with OVCAR-3 ovarian was > 100 µM; with HCT-15 colon, > 61.8 µM.
For the compound `O=C(NO)c1ccc(C(=O)NO)cc1`, the TGI was > 100 µM in the assay with SW-620 colon; 83.1 µM in the assay with CCRF-CEM leukemia; > 100 µM with UACC-257 melanoma; > 100 µM in the assay with RPMI-8226 leukemia; > 100 µM with K-562 leukemia; > 100 µM in the assay on NCI-H226 lung. For the same compound, the TGI with OVCAR-3 ovarian and in the assay with HCT-15 colon was > 100 µM in each case.
Turning to `CN(C)c1c(Cl)c(=O)oc2c1ccc1nc(-c3ccccc3)sc12`, the TGI in the assay with SW-620 colon, with CCRF-CEM leukemia, in the assay on UACC-257 melanoma, in the assay on RPMI-8226 leukemia, with K-562 leukemia and in the assay on NCI-H226 lung was > 100 µM in each case. For the same compound, the TGI in the assay on OVCAR-3 ovarian and in the assay on HCT-15 colon was > 100 µM in each case.
`O=S(=O)(c1cccc(C(F)(F)F)c1)N1c2ccccc2-n2cccc2C1c1cccnc1` (stereo not drawn): the TGI with SW-620 colon was > 60.4 µM; with CCRF-CEM leukemia, > 51.6 µM; with UACC-257 melanoma, > 54.6 µM; in the assay with RPMI-8226 leukemia, > 57.7 µM; in the assay on K-562 leukemia, > 86.4 µM; in the assay on NCI-H226 lung, > 53 µM. The TGI in the assay with OVCAR-3 ovarian was > 55 µM; in the assay on HCT-15 colon, > 91.4 µM.
In the case of `O=C(CC12CC3CC(CC(C3)C1)C2)NCCOCCOCCNC(=O)c1cc2c(o1)C(=O)c1ccccc1C2=O`, the GI50 is 1.21 µM in the assay with SW-620 colon; 2.27 µM in the assay with CCRF-CEM leukemia; 1.14 µM in the assay with UACC-257 melanoma; 1.56 µM in the assay on RPMI-8226 leukemia; 1.33 µM in the assay with K-562 leukemia; 1.65 µM in the assay with NCI-H226 lung. The GI50 was 0.243 µM in the assay on OVCAR-3 ovarian and 0.867 µM in the assay with HCT-15 colon. The TGI in the assay on SW-620 colon came to 2.87 µM; in the assay with CCRF-CEM leukemia, 13.1 µM; in the assay with UACC-257 melanoma, 2.43 µM; in the assay with RPMI-8226 leukemia, 4.43 µM; in the assay on K-562 leukemia, 4.9 µM; in the assay with NCI-H226 lung, 3.94 µM. The TGI was determined as 0.72 µM with OVCAR-3 ovarian and 2.39 µM with HCT-15 colon.
Regarding `Cn1ncc2c(Nc3ccc(Br)cc3)nc(Nc3ccc(Br)cc3)nc21`, the GI50 with SW-620 colon was 2.93 µM; with CCRF-CEM leukemia it was 3.23 µM; in the assay on UACC-257 melanoma, 5.32 µM; in the assay on RPMI-8226 leukemia it was 2.4 µM; in the assay on K-562 leukemia, 1.59 µM; with NCI-H226 lung, 2.62 µM. Besides, the GI50 in the assay with OVCAR-3 ovarian is 3.95 µM; in the assay with HCT-15 colon, 2.2 µM. The TGI in the assay with SW-620 colon came out at 8.97 µM; in the assay with CCRF-CEM leukemia, 22 µM; in the assay on UACC-257 melanoma it was 18.8 µM; in the assay on RPMI-8226 leukemia, 8.87 µM; in the assay on K-562 leukemia it was 4.3 µM; with NCI-H226 lung, 13.4 µM. The TGI in the assay with OVCAR-3 ovarian worked out at 12.3 µM; in the assay on HCT-15 colon, 5.62 µM.
As to `COc1cc(OC)c(-c2cc(=O)c3c(OC)c(OC)c(OC)c(OC)c3o2)cc1OC`, the TGI with SW-620 colon, in the assay on CCRF-CEM leukemia, in the assay with UACC-257 melanoma, in the assay on RPMI-8226 leukemia, in the assay on K-562 leukemia and in the assay with NCI-H226 lung was > 100 µM each time. In addition, the TGI in the assay on OVCAR-3 ovarian and in the assay on HCT-15 colon was > 100 µM throughout.
Regarding `CCCOC(=O)N[C@H]1CCc2c(Br)c(OC)c(OC)c(OC)c2-c2ccc(SC)c(=O)cc21`, the GI50 in the assay on SW-620 colon is 0.0245 µM; with CCRF-CEM leukemia, 0.0274 µM; in the assay on UACC-257 melanoma, 5.02 µM; in the assay with RPMI-8226 leukemia, 0.0259 µM; in the assay with K-562 leukemia it was < 0.01 µM; with NCI-H226 lung it was 0.0341 µM. Further, the GI50 in the assay with OVCAR-3 ovarian was 0.0319 µM; with HCT-15 colon, 0.0218 µM. For the same compound, the TGI in the assay on SW-620 colon was > 100 µM; in the assay with CCRF-CEM leukemia, > 51.2 µM; in the assay on UACC-257 melanoma, 32.6 µM; in the assay on RPMI-8226 leukemia, 10.4 µM; with K-562 leukemia, > 100 µM; in the assay with NCI-H226 lung, 6.71 µM. Besides, the figures for the TGI in the assay on OVCAR-3 ovarian and in the assay on HCT-15 colon were 10.4 µM and > 36 µM, respectively.
